Experimental data from ChEMBL document CHEMBL1122213, “Synthesis and study of a spin-labeled cyclophosphamide analogue, 3-(1-oxy-2,2,6,6-tetramethyl-4-piperidinyl)cyclophosphamide” (J Med Chem, 1982).
Calls of active or inactive are those of the source. The rule behind the calls is not given here.

Assays:
[1] = Anticancer activity tested against L1210 lymphoid leukemia in BDF1 mice; range 25-100; type: ADME; details: mouse
[2] = Half life was determined; type: ADME; details: rat
Mus musculus [3] = test: Compound test for increase life span in mice after 100 mg/kg ip administration; type: functional; details: route intraperitoneal
[4] = Anticancer activity tested against L1210 lymphoid leukemia in BDF1 mice; range 75-300; type: ADME; details: mouse
Mus musculus [5] = species on record: Mus musculus; test: Effect tested against L1210 lymphoid leukemia in BDF1 mice an inoculum of l0E5 cells; Inactive; type: functional, organism-based

| Compound | half-life [2] | Activity (Mus musculus [5]) | also measured |
| --- | --- | --- | --- |
| CC1(C)CC(NP(=O)(O)N(CCCl)CCCl)CC(C)(C)N1O.CC1(C)CC(NP(=O)(O)N(CCCl)CCCl)CC(C)(C)N1[O] [listing 1 of 2 here] | – | – | Sublethal dose [1]: > 100 mg/kg |
| CC1(C)CC(NP(=O)(O)N(CCCl)CCCl)CC(C)(C)N1O | 34 min | – | – |
| CC1(C)CC(N2CCCOP2(=O)N(CCCl)CCCl)CC(C)(C)N1[O] (configuration not stated) | – | inactive | Increased (Mus musculus [3]): 64%; Sublethal dose [4]: > 300 mg/kg |
| CC1(C)CC(NP(=O)(O)N(CCCl)CCCl)CC(C)(C)N1[O] | 51 min | – | – |
| CC1(C)CC(NP(=O)(O)N(CCCl)CCCl)CC(C)(C)N1O.CC1(C)CC(NP(=O)(O)N(CCCl)CCCl)CC(C)(C)N1[O] [listing 2 of 2 here] | – | inactive | – |
